# Measurements: patent US20200016125A1, “GRANZYME B INHIBITOR COMPOSITIONS AND METHODS FOR THE PREVENTION AND/OR TREATMENT OF SKIN BLISTERING AND/OR PEELING” (The University of British Columbia, priority 2017, published 2020)
# Experiments:
# [1] = target: T1, GzmB (Homo sapiens, UniProt P10144); assay: GzmB cleavage assay of collagen VII with GzmB inhibitors (Western Blot); format: biochemical; details: for inhibition of GzmB-mediated collagen VII cleavage: FIG. 3, collagen VII 500 ng, 200 mM of GzmB, 24 hours 37° C., GzmB incubated with inhibitor 1 hour before substrate
# T1 construct: purchased EmeraldBio
# Procedure: (§1) Addition of GzmB inhibitors (Serpin A3N, Compound 20, Compound A) prevented GzmB-mediated collagen VII cleavage. Bands indicating fragments are labeled. GzmB cleavage assay was performed in 40 μL of PBS. Briefly, collagen VII (500 ng) was incubated with […] of GzmB for 24 hours at 37° C. For inhibition, GzmB was incubated with Compound 20, Serpin A3N and Compound A for 1 hour at 37° C. prior to the addition of collagen VII. After 24 hours, all samples were loaded onto a 10% SDS-PAGE, blotted on a PVDF membrane and incubated with a primary antibody specific for collagen VII (rabbit anti-collagen VII, Abcam plc) overnight at 4° C., and then with a secondary labeled anti-rabbit antibody for 1 hour at room temperature.
# (§2) For inhibition studies, prior to the addition of substrates to the reaction, GzmB was incubated in the presence of 100 μM Compound A for 1 hour at 37° C. After 24 hours incubation, proteins were denatured, separated on a 4%-20% SDS-PAGE gel (for α6/β4). […] For inhibition studies, prior to the addition of substrates to the reaction, GzmB was incubated in the presence of 100 μM Compound A for 1 hour at 37° C. After 24 hours incubation, nidogen-2 protein was denatured and separated on a 7.5% SDS-PAGE gel. Cleavage was detected by anti-nidogen-2 antibody (R&D Systems). […] For inhibition studies, prior to the addition of substrates to the reaction, GzmB was incubated in the presence of 100 μM Compound A for 1 hour at 37° C. After 24 hours incubation, collagen VII protein was denatured and separated on a 10% SDS-PAGE gel. Cleavage was detected by anti-collagen VII antibody (ABCAM, Toronto, ON).
# as §1, with “A” for “Addition of GzmB inhibitors (Serpin A3N, Compound 20, Compound A) prevented GzmB-mediated collagen VII cleavage. Bands indicating fragments are labeled.”, “hours” for “hours,”, “on” for “on a”
# (§3) The recombinant human integrin α6/β4 (α6 a.a. 24-878, β4 a.a. 28-710, R&D Systems, Minneapolis, Minn.), collagen VII (199-482 a.a., MyBiosource, San Diego, Calif.), collagen XVII (a.a. 490-1497, generous gift from Dr. Claus-Werner Franzke), and collagen I (Novus Biologicals, Littleton, Colo.) were incubated for 24 hours at 37° C. in 200 nM purified human GzmB (EmeraldBio, Bainbridge Island, Wash.). For inhibition studies, prior to the addition of substrates to the reaction, GzmB was incubated in the presence of 600 nm serpin A3N (generous gift from Dr. Chris R. Bleackley, University of Alberta, Edmonton, AB, Canada) or 100 NM of the small molecule inhibitor Compound 20 (courtesy of the Centre for Drug Research and Development, Vancouver, BC) for 1 hour at 37° C. After the 24 hours incubation, proteins were denatured, separated on a 4-20% (for integrin α6/β4), 10% (for collagen VII), 8-10% (for collagen XVII), or 7.5% (for collagen I) SDS-polyacrylamide gel. Cleavage was detected by Western Blot using anti-human integrin α6 sub-unit (ABCAM), anti-human integrin β4 sub-unit (R&D Systems, Minneapolis, Minn.), anti collagen VII (ABCAM), and anti-human collagen XVII (generous gift from Dr. Claus-Werner Franzke) and imaged using a Li-Cor Odissey® FC (Li-Cor, Lincoln, Nebr.). […]
# [2] = test system: diabetic mouse model, burn injury to induce blistering; assay: Burn injury blistering in diabetic mouse model; format: in vivo; details: for blistering compared to saline-only treatment: FIG. 8B, 30-day study
# Procedure: FIGS. 8A through 8C provide evidence Compound A, a GzmB inhibitor, prevents blistering. Mice were exposed to burn injury by heating a steal rod for 6 seconds to 100° C. to induce blistering. Two independent experiments were run: In FIG. 8A, Compound A was added daily for 30 days. […] In FIG. 8B, Compound A in PBS (3.6 mg/mL) was administered daily by subcutaneous injection and in a gel (3.6 mg/mL) administered daily by topical application.
# In this example mice were exposed to burn injury by heating a steal rod for 6 seconds to 100° C. to induce blistering.
# There were two separate experiments run. Experiment 1 was a 30-day 3-arm study. Arm 1 consisted of treating the mouse daily with Compound A (3.6 mg/mL) in PBS by subcutaneous injection. In arm 2, Compound A (3.6 mg/mL) was administered to the mouse by daily topical application in the gel. In arm 3, the mouse was administered daily by subcutaneous injection saline as a control.
# Experiment 2 was a 25-day 2-arm study. Arm 1 consisted of administering daily, through topical application, Compound A (3.6 mg/mL) in the gel. Arm 2 consisted of administering daily the vehicle gel through topical application as a control.
# [3] = target: T1, GzmB; assay: GzmB-mediated cleavage of nidogen-2 with inhibitor (Western Blot); format: biochemical; details: FIG. 22B; nidogen-2 residues 31-1375, 500 ng, 200 nM purified human GzmB, 100 μM Compound A
# Procedure: as §2
# [4] = target: T1, GzmB; assay: GzmB cleavage assay of integrin α6/β4 (α6 and β4 sub-units) with GzmB inhibitors; format: biochemical
# Procedure: as §2
# as §3, with “After the 24 hours incubation, proteins were denatured, separated on a 4-20% (for integrin α6/β4), 10% (for collagen VII), 8-10% (for collagen XVII), or 7.5% (for collagen I) SDS-polyacrylamide gel.” left out
# [5] = target: T1, GzmB; assay: GzmB-mediated cleavage of collagen XVII with inhibitors (Western Blot); format: biochemical; details: FIG. 16A, collagen XVII a.a. 490-1497, 200 nM GzmB, pre-incubation with Compound 20 or serpin A3N
# Procedure: Black arrow indicates cleavage fragment and * indicates full-length protein. GzmB produces a cleavage band, and this cleavage is abolished by the addition of Com20 or S3AN. […] Dotted lines indicate separation between the epidermis and the dermis. Scale bars represent […].
# as §3, with “After the 24 hours incubation, proteins were denatured, separated on a 4-20% (for integrin α6/β4), 10% (for collagen VII), 8-10% (for collagen XVII), or 7.5% (for collagen I) SDS-polyacrylamide gel.” left out
# T1 sequence (P10144 21-247): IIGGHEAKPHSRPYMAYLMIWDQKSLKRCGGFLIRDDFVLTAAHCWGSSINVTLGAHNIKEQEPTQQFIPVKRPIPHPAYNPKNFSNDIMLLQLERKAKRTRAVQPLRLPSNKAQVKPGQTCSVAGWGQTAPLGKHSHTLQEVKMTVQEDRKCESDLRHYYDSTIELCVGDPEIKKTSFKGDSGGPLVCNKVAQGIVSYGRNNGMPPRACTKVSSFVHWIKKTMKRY
Molecule,inhibition of GzmB-mediated collagen VII cleavage [1],"inhibition of GzmB-mediated cleavage of collagen VII ([1]; FIG. 22C, collagen VII residues 199-482, 500 ng, 200 nM purified human GzmB, 100 μM Compound A pre-incubated 1 hour)","blistering ([2]; FIG. 8A, mice, burn injury, Compound A daily for 30 days versus saline-treated skin)","blistering compared to saline-only treatment ([2]; Compound A in PBS 3.6 mg/mL, daily subcutaneous injection)","blistering compared to saline-only treatment ([2]; Compound A in gel 3.6 mg/mL, daily topical application)","blistering compared to gel alone ([2]; FIG. 8C, Compound A in gel 3.6 mg/mL, daily topical application, 25-day study)",inhibition of GzmB-mediated cleavage of nidogen-2 [3],"inhibition of GzmB-mediated cleavage of α6β4 integrin ([4]; FIG. 22A, Coomassie staining, 200 nM purified human GzmB, 100 μM Compound A pre-incubated 1 hour)","inhibition of GzmB-mediated cleavage of collagen VII ([1]; FIG. 15A, collagen VII a.a. 199-482, 200 nM purified human GzmB, 24 hours, pre-incubation with 600 nm serpin A3N or 100 NM Compound 20)","inhibition of GzmB-mediated cleavage of collagen VII ([1]; FIG. 15A, collagen VII a.a. 199-482, 200 nM purified human GzmB, 24 hours, pre-incubation with 600 nm serpin A3N or 100 NM Compound 20, listed as S3AN)",inhibition of GzmB-mediated cleavage of collagen XVII (NC16 ectodomain) [5],inhibition of GzmB-mediated cleavage of collagen XVII (NC16 ectodomain) ([5]; listed as S3AN),"inhibition of GzmB-mediated cleavage of the α6 integrin subunit ([4]; FIG. 13A, 200 nM GzmB, Western Blot, Compound 20 100 μM, serpin A3N 600 nM)","inhibition of GzmB-mediated cleavage of β4 integrin sub-unit ([4]; FIG. 14A, 200 nM GzmB, Western Blot, Compound 20 100 μM, serpin A3N 600 nM)"
"CC[C@H](C)[C@H](NC(=O)CCC(=O)O)C(=O)NCC(=O)N1C(=O)N(C2CCCCC2)C[C@H]1C(=O)NCc1nn[nH]n1 [Compound A, 4-(((2S,3S)-1-((2-((S)-5-(((2H-tetrazol-5-yl)methyl)carbamoyl)-3-cyclohexyl-2-oxoimidazolidin-1-yl)-2-oxoethyl)amino)-3-methyl-1-oxopentan-2-yl)amino)-4-oxobutanoic acid]",prevented,this cleavage is prevented,Blistering is prevented,reduce blistering,reduce blistering,reduced blistering,this cleavage was prevented,can prevent the cleavage,,,,,,
"Serpin A3N: an irreversible serine protease inhibitor used as GzmB inhibitor (protein, UniProt Q91WP6 21-418, looked up) Serine protease inhibitor A3N: FPDGTLGMDAAVQEDHDNGTQLDSLTLASINTDFAFSLYKELVLKNPDKNIVFSPLSISAALAVMSLGAKGNTLEEILEGLKFNLTETSEADIHQGFGHLLQRLNQPKDQVQISTGSALFIEKRQQILTEFQEKAKTLYQAEAFTADFQQPRQAKKLINDYVRKQTQGMIKELVSDLDKRTLMVLVNYIYFKAKWKVPFDPLDTFKSEFYAGKRRPVIVPMMSMEDLTTPYFRDEELSCTVVELKYTGNASALFILPDQGRMQQVEASLQPETLRKWKNSLKPRMIDELHLPKFSISTDYSLEDVLSKLGIREVFSTQADLSAITGTKDLRVSQVVHKAVLDVAETGTEAAAATGVKFVPMSAKLYPLTVYFNRPFLIMIFDTETEIAPFIAKIANPK",prevented,,,,,,,,prevented the appearance of both ˜20 and 25 kDa bands,abolished,prevented NC16 cleavage,abolished,prevented the cleavage,prevented the cleavage
